One series relates to mice. To be noted: mouse, in vivo; cited from earlier work.
Series [1] addresses T1, aldose reductase (human recombinant, expressed in SF 9 cells) (Homo sapiens, UniProt P15121).
T1 construct: host or cells: SF 9 cells
The series can be described thus: Aldose reductase assay, reduction of glucose to sorbitol (NADPH oxidation, absorbance at 340 nm). It is filed as biochemical. To be noted: Lineweaver Burk plots nearly parallel; glucose and glyceraldehyde substrates. Here is the method:
Aldose reductase assays were as described in Nishimura C., Yamaoka T., Mizutani M., Yamashita K., Akera T., Tanimoto T., Purification And Characterization Of The Recombinant Human Aldose Reductase Expressed In Baculovirus System, Biochem. Biophys. Acta, Jun. 24, 1991; 1078(2):171-8.
Briefly, Dimesna (0-20 μM) was incubated at 37° C. with aldose reductase (0.0016 units, human recombinant, expressed in SF 9 cells) and NADPH (0.15 mM) in sodium phosphate buffer (100 mM, pH 6.2). To initiate assays, glucose (10-150 mM) was added to reactions and the decrease in absorbance at 340 nm (oxidation of NADPH) was monitored. Assays were run in duplicate or triplicate. Slopes were calculated using Varian-Cary software package 2.0 and averaged. In all cases errors were 4% or less. Lineweaver Burk analysis (Enzyme Kinetics, version 1.61) was used to calculate inhibition constants.

The subject of another series is humans. To be noted: in vivo; cited from earlier work.
The subject of a further series is dogs. To be noted: dog, in vivo; cited from earlier work.

For `O=S(=O)([O-])CCSSCCS(=O)(=O)[O-].[Na+].[Na+]`, the “Adverse effects after intravenous administration” value with mice and in the series on dogs was “no adverse effects” each time. In addition, the “Mode of inhibition of the aldose reductase reaction” value in series [1] was “uncompetitive inhibition”. Also, the “Adverse effects after administration to humans” value in the series with humans is “no adverse effects”.
